The text below walks through data of US10065972B2, “Bicyclic or tricyclic heterocyclic compound” (MITSUBISHI TANABE PHARMA CORPORATION, priority 2014, dated 2018).

This assay deals with human recombinant KAT-II (Homo sapiens (Human), UniProt Q8N5Z0). Nature of the assay: KAT-II inhibitory test. Particulars: 3.0 μmol/L kynurenine, 37° C., 1 hr, pH 8.0; kynurenic acid quantified by HPLC. The format is biochemical. Here is the method: The compounds described in the above-mentioned Examples were used for the KAT-II inhibitory test.
human recombinant KAT-II, sequence (Q8N5Z0 30-425): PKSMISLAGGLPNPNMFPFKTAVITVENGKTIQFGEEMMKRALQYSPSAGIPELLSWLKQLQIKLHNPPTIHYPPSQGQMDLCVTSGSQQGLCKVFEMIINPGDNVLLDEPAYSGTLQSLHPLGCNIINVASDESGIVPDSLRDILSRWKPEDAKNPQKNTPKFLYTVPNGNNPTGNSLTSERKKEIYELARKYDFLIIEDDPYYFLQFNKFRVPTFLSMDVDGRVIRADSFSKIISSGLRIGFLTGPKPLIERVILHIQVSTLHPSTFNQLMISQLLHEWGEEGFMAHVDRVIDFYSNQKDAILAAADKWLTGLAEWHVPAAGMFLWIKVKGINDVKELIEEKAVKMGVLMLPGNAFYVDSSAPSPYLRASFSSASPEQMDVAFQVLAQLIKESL
Preparation of Human Recombinant KAT-II
Human recombinant KAT-II was prepared as follows.
His tag and maltose binding protein tag were added to the N-terminal of a gene encoding human KAT-II (Genbank accession number: AF481738.1), and the obtained gene was incorporated into pET32 (Merck Nihon Millipore), which is an Escherichia coli expression vector. Human recombinant KAT-II produced by BL21(DE3) Escherichia coli (Merck Nihon Millipore, 69450) transformed using the plasmid was purified using an amylose resin column (New England Biolabs, #800-21 L).
The inhibitory action of the test compound on human recombinant KAT-II was determined by the following method.
To a reaction mixture (45 μL) containing 3.0 μmol/L kynurenine, 10 μmol/L pyridoxal phosphate, 2.0 ng/μL human recombinant KAT-II, and 150 mmol/L tris(hydroxymethyl)aminomethane-acetate buffer (pH 8.0) was added a 10% dimethyl sulfoxide solution (5 μL) of each test compound prepared, and the mixture was reacted at 37° C. for 1 hr. After the reaction, 50% trichloroacetic acid (5 μL) was added to terminate the reaction.
The resultant kynurenic acid was quantified as follows by high performance liquid chromatography. An enzyme reaction mixture was separated by an octadecylsilane reversed-phase column (SC-50DS, Eicom Corporation; mobile phase: 250 mmol/L zinc acetate, 50 mmol/L sodium acetate, and 5.0% acetonitrile (pH 6.2)) incubated at 30° C., and kynurenic acid was quantified using a fluorescence detector (RF-20Axs, Shimadzu Corporation) at excitation wavelength 354 nm, detection wavelength 460 nm. The analytical curve was drawn every time by an external standard method. Each test compound was tested by dual measurement at each concentration.
One may read the IC50 as the concentration needed to halve the response being measured. For `Cc1cc(=O)n2nc(N3C[C@@H]4C[C@@H]4[C@@H]3C(=O)NCc3ccccc3)sc2n1` (racemic) [Example 661, (1SR,2RS,5RS)-N-benzyl-3-(7-methyl-5-oxo-5H-[1,3,4]thiadiazolo[3,2-a]pyrimidin-2-yl)-3-azabicyclo[3.1.0]hexane-2-carboxamide], the IC50 worked out at 3900 nM. For the molecule `Cn1c(CN2CCOCC2)nc2sc([C@H]3CCCN3C(=O)OCc3ccccc3)nc2c1=O` [Example 8, (R)-2-{6-methyl-5-[(morpholin-4-yl)methyl]-7-oxo-6,7-dihydro[1,3]thiazolo[5,4-d]pyrimidin-2-yl}pyrrolidine-1-carboxylic acid benzyl ester], the IC50 was 610 nM. The result for `CCc1nc2sc([C@H]3CCCN3C(=O)NCc3ccccc3)nc2c(=O)n1C` [Example 9, (R)-N-benzyl-2-(5-ethyl-6-methyl-7-oxo-6,7-dihydro[1,3]thiazolo[5,4-d]pyrimidin-2-yl)pyrrolidine-1-carboxamide] reads 250 nM; that for `CC(C)n1c(C(F)(F)F)nc2sc([C@H]3CCCN3C(=O)NCc3ccccc3Cl)nc2c1=O` [Example 11, (R)-N-(2-chlorobenzyl)-2-[7-oxo-6-(propan-2-yl)-5-trifluoromethyl-6,7-dihydro[1,3]thiazolo[5,4-d]pyrimidin-2-yl]pyrrolidine-1-carboxamide], 6200 nM. `CCc1nc2sc([C@H]3CCCN3C(=O)NC3(c4ccccc4)CC3)nc2c(=O)n1C` [Example 12, (R)-2-(5-ethyl-6-methyl-7-oxo-6,7-dihydro[1,3]thiazolo[5,4-d]pyrimidin-2-yl)-N-(1-phenylcyclopropyl)pyrrolidine-1-carboxamide]: the IC50 worked out at 130 nM. For `CCc1nc2sc([C@H]3CCCN3C(=O)N[C@@H]3CCc4ccccc43)nc2c(=O)n1C` [Example 13, (R)-5-ethyl-2-{1-[((R)-indan-1-yl)aminocarbonyl]pyrrolidin-2-yl}-6-methyl-6,7-dihydro[1,3]thiazolo[5,4-d]pyrimidin-7-one], the concentration for half-maximal inhibition (IC50) was found to be 560 nM.

For `CCc1nc2sc([C@H]3CCCN3C(=O)CN3CCCc4ccccc43)nc2c(=O)n1C` [Example 14, (R)-2-{1-[2-(3,4-dihydro-2H-quinolin-1-yl)acetyl]pyrrolidin-2-yl}-5-ethyl-6-methyl-6H-[1,3]thiazolo[5,4-d]pyrimidin-7-one], the IC50 was found to be 57 nM. In the case of `CCc1nc2sc([C@H]3CCCN3C(=O)NC(C)(C)c3ccccc3)nc2c(=O)n1C` [Example 15, (R)-2-(5-ethyl-6-methyl-7-oxo-6,7-dihydro[1,3]thiazolo[5,4-d]pyrimidin-2-yl)-N-(1-methyl-1-phenylethyl)pyrrolidine-1-carboxamide], the half-inhibitory concentration (IC50) was 1100 nM. In the case of `CCc1nc2sc([C@H]3CCCN3C(=O)N[C@H](C)c3ccccc3)nc2c(=O)n1C` [Example 17, (R)-2-(5-ethyl-6-methyl-7-oxo-6,7-dihydro[1,3]thiazolo[5,4-d]pyrimidin-2-yl)-N-((R)-1-phenylethyl)pyrrolidine-1-carboxamide], the concentration for half-maximal inhibition (IC50) amounted to 1600 nM.

Take `Cc1noc(-c2nc3sc([C@H]4CCCN4C(=O)Oc4ccccc4)nc3c(=O)n2C)n1` [Example 19, (R)-2-[6-methyl-5-(3-methyl-[1,2,4]oxadiazol-5-yl)-7-oxo-6,7-dihydro[1,3]thiazolo[5,4-d]pyrimidin-2-yl]pyrrolidine-1-carboxylic acid phenyl ester]: the IC50 came out at 43 nM. Take `CCc1nc2sc([C@H]3CCCN3C(=O)Oc3ccccc3)nc2c(=O)n1C` [Example 28, (R)-2-(5-ethyl-6-methyl-7-oxo-6,7-dihydro[1,3]thiazolo[5,4-d]pyrimidin-2-yl)pyrrolidine-1-carboxylic acid phenyl ester]: the IC50 worked out at 25 nM.

For the molecule `Cc1nc2sc([C@H]3CCCN3C(=O)Oc3ccccc3)nc2c(=O)n1C1CCOCC1` [Example 32, (R)-2-[5-methyl-7-oxo-6-(tetrahydro-2H-pyran-4-yl)-6,7-dihydro[1,3]thiazolo[5,4-d]pyrimidin-2-yl]pyrrolidine-1-carboxylic acid phenyl ester], the IC50 came to 400 nM. For `Cc1cccc(OC(=O)N2CCC[C@@H]2c2nc3c(=O)n(C)c(C4CCOCC4)nc3s2)c1` [Example 36, (R)-2-[6-methyl-7-oxo-5-(tetrahydro-2H-pyran-4-yl)-6,7-dihydro[1,3]thiazolo[5,4-d]pyrimidin-2-yl]pyrrolidine-1-carboxylic acid 3-methylphenyl ester], the IC50 was 18 nM. On to `CC(C)c1nc2sc([C@H]3CCCN3C(=O)Oc3ccccc3)nc2c(=O)[nH]1` [Example 63, (R)-2-[7-oxo-5-(propan-2-yl)-6,7-dihydro[1,3]thiazolo[5,4-d]pyrimidin-2-yl]pyrrolidine-1-carboxylic acid phenyl ester], for which the 50% inhibitory concentration (IC50) was 15 nM. Turning to `O=C(Oc1ccccc1)N1CCC[C@@H]1c1nc2c(=O)[nH]c(-c3ccccc3)nc2s1` [Example 65, (R)-2-(7-oxo-5-phenyl-6,7-dihydro[1,3]thiazolo[5,4-d]pyrimidin-2-yl)pyrrolidine-1-carboxylic acid phenyl ester], the IC50 worked out at 25 nM. As to `O=C(Oc1ccccc1)N1CCC[C@@H]1c1nc2c(=O)[nH]c(-c3ccc(F)cc3F)nc2s1` [Example 67, (R)-2-[5-(2,4-difluorophenyl)-7-oxo-6,7-dihydro[1,3]thiazolo[5,4-d]pyrimidin-2-yl]pyrrolidine-1-carboxylic acid phenyl ester], the IC50 stood at 14 nM. `Cc1ccccc1-c1nc2sc([C@H]3CCCN3C(=O)Oc3ccccc3)nc2c(=O)[nH]1` [Example 69, (R)-2-[5-(2-methylphenyl)-7-oxo-6,7-dihydro[1,3]thiazolo[5,4-d]pyrimidin-2-yl]pyrrolidine-1-carboxylic acid phenyl ester]: the 50% inhibitory concentration (IC50) stood at 40 nM. Regarding `O=C(Oc1ccccc1)N1CCC[C@@H]1c1nc2c(=O)[nH]c(C3CCC(F)(F)CC3)nc2s1` [Example 74, (R)-2-[5-(4,4-difluorocyclohexyl)-7-oxo-6,7-dihydro[1,3]thiazolo[5,4-d]pyrimidin-2-yl]pyrrolidine-1-carboxylic acid phenyl ester], the half-inhibitory concentration (IC50) stood at 84 nM. For `O=C(Oc1ccccc1)N1CCC[C@@H]1c1nc2c(=O)[nH]c(C3(CF)CC3)nc2s1` [Example 80, (R)-2-{5-[1-(fluoromethyl)cyclopropyl]-7-oxo-6,7-dihydro[1,3]thiazolo[5,4-d]pyrimidin-2-yl}pyrrolidine-1-carboxylic acid phenyl ester], the half-maximal inhibitory concentration (IC50) was found to be 8.6 nM. For `C[C@H](c1nc2c(=O)[nH]c(C3(Cl)CC3)nc2s1)N(C)C(=O)Oc1ccccc1` [Example 85, N-{(R)-1-[5-(1-chlorocyclopropyl)-7-oxo-6,7-dihydro[1,3]thiazolo[5,4-d]pyrimidin-2-yl]ethyl}-N-methylcarbamic acid phenyl ester], the 50% inhibitory concentration (IC50) turned out to be 170 nM. Turning to `Cc1cccc(OC(=O)N2CCC[C@@H]2c2nc3c(=O)[nH]c(C4(C#N)CC4)nc3s2)c1` [Example 94, (R)-2-[5-(1-cyanocyclopropyl)-7-oxo-6,7-dihydro[1,3]thiazolo[5,4-d]pyrimidin-2-yl]pyrrolidine-1-carboxylic acid 3-methylphenyl ester], the half-maximal inhibitory concentration (IC50) turned out to be 6.1 nM.

On to `COCC1(c2nc3sc([C@H]4CCCN4C(=O)Oc4ccccc4)nc3c(=O)[nH]2)CC1` [Example 96, (R)-2-{5-[1-(methoxymethyl)cyclopropyl]-7-oxo-6,7-dihydro[1,3]thiazolo[5,4-d]pyrimidin-2-yl}pyrrolidine-1-carboxylic acid phenyl ester], for which the concentration for half-maximal inhibition (IC50) stood at 19 nM. In the case of `O=C(Cc1ccccc1)N1CCC[C@@H]1c1nc2c(=O)[nH]c(C3(C(F)(F)F)CC3)nc2s1` [Example 97, 2-[(R)-1-(phenylacetyl)pyrrolidin-2-yl]-5-[1-(trifluoromethyl)cyclopropyl]-6H-[1,3]thiazolo[5,4-d]pyrimidin-7-one], the IC50 was found to be 13 nM. The value for `Cc1cccc(CC(=O)N2CCC[C@@H]2c2nc3c(=O)[nH]c(C4(C(F)(F)F)CC4)nc3s2)c1` [Example 98, 2-{(R)-1-[2-(3-methylphenyl)acetyl]pyrrolidin-2-yl}-5-[1-(trifluoromethyl)cyclopropyl]-6H-[1,3]thiazolo[5,4-d]pyrimidin-7-one] was 37 nM. The value for `CC1(Oc2nc3sc([C@H]4CCCN4C(=O)Oc4ccccc4)nc3c(=O)[nH]2)CC1` [Example 104, (R)-2-[5-(1-methylcyclopropoxy)-7-oxo-6,7-dihydro[1,3]thiazolo[5,4-d]pyrimidin-2-yl]pyrrolidine-1-carboxylic acid phenyl ester] was 73 nM.

Turning to `O=C(Oc1ccccc1)N1CCC[C@@H]1c1nc2c(=O)[nH]c(OCC(F)(F)F)nc2s1` [Example 105, (R)-2-[7-oxo-5-(2,2,2-trifluoroethoxy)-6,7-dihydro[1,3]thiazolo[5,4-d]pyrimidin-2-yl]pyrrolidine-1-carboxylic acid phenyl ester], the IC50 was found to be 65 nM.

In the case of `CN(C)c1nc2sc([C@H]3CCCN3C(=O)Oc3ccccc3)nc2c(=O)[nH]1` [Example 106, (R)-2-[5-(N,N-dimethylamino)-7-oxo-6,7-dihydro[1,3]thiazolo[5,4-d]pyrimidin-2-yl]pyrrolidine-1-carboxylic acid phenyl ester], the 50% inhibitory concentration (IC50) came out at 69 nM.
